Measurements taken from patent US20140350273A1, “PEDIATRIC USES OF CABAZITAXEL” (AVENTIS PHARMA S.A., priority 2012, published 2014).
Like-named read-outs stand apart in the source and are kept apart here.

Test system: human rhabdomyosarcoma RH-30
Type: in vivo
Conditions: for Average body weight change in % per mouse at nadir / Drug death (Day of death) / Regressions Complete / Regressions Partial / Tumor free survivors at day 120 / day of nadir / ΔT/ΔC in % (day 27) / Biological interpretation: 18
Protocol: This efficacy may be quantified, for example, as changes in tumor volume for each treated (T) and control (C) group, which are calculated for each animal and each day by subtracting the tumor volume on the day of first treatment (staging day) from the tumor volume on the specified observation day. This allows calculating the tumor growth inhibition: ΔT/ΔC=(median delta T/median delta C)×100. Individual tumor volume changes from baseline are thereafter analyzed by a non-parametric two-way ANOVA-TYPE (with factors: group and repeated days) followed by a post-hoc contrasts analysis, with Bonferroni-Holm adjustment for multiplicity, comparing all treated groups to the control group. […] A probability less than 5% (p<0.05) was considered as significant.
Based on the National Cancer Institute (NCl) standards, a ΔT/ΔC≦40% is the minimal level required to declare activity.
The tumor doubling time (in days; Td) was estimated from the plot of the log linear growth of the control group tumors in exponential growth (100 to 1000 mm^3 range) [T. H. Corbett et al., Cancer, 40: 2660-2680 (1977); F. M. Schabel et al., Cancer Drug Development, Part B, Methods in Cancer Research, 17: 3-51, New York, Academic Press Inc. (1979)].
This efficacy may also be quantified by the number of tumor regressions observed after therapy. Individual mice reporting a tumor volume ≦50% of the Day 0 measurement for two consecutive measurements over a seven day period were considered partial responders (PR). Individual mice lacking palpable tumors (<4×4 mm^2 for two consecutive measurements over a seven day period) were classified as complete responders (CR); a CR that persisted until study completion was considered a tumor-free survivor (TFS).
The animals subjected to the experiment are subcutaneously grafted unilaterally with approximately 30 mg of a tumor fragment on day 0. The animals are implanted with a human tumor xenografted in immunocompromized mice. Several days post tumor implantation, mice are randomized according to their body weight to the different groups of treatments and controls. The animals are observed every day. […] The groups are then weighed once or twice a week until the end of the trial.
The tumors are measured 1 to 5 times a week, depending on the tumor doubling time, until the tumor reaches approximately 1,000 mm^3, or until the animal dies (if this occurs before the tumor reaches 1,000 mm^3). The animals are necropsied immediately after euthanasia or death.
The selected tumor model was a human rhabdomyosarcoma RH-30, xenografted in SCID mice [Douglass E C, et al. Cytogenet Cell Genet. 1987; 45(3-4):14855.].
Treatment solutions were prepared first by mixing 1 volume of ethanolic stock solution and 1 volume of polysorbate 80, then by adding 18 volumes of glucose 5% in water.

[1] = 3.5 mg/kg per injection (total 7.0) IV days 14
[2] = 5.6 mg/kg per injection (total 11.2) IV days 14
[3] = 5.6 mg/kg per injection (total 11.2) IV days 14, listed as CABAZITAXEL
[4] = 9.0 mg/kg per injection (total 18) IV days 14
[5] = 14.5 mg/kg per injection (total 29) IV days 14
[6] = 14.5 mg/kg per injection (total 29) IV days 14, listed as CABAZITAXEL

CO[C@H]1C(=O)[C@]2(C)[C@@H](OC)C[C@H]3OC[C@@]3(OC(C)=O)[C@H]2[C@H](OC(=O)c2ccccc2)[C@]2(O)C[C@H](OC(=O)[C@H](O)[C@@H](NC(=O)OC(C)(C)C)c3ccccc3)C(C)=C1C2(C)C [Cabazitaxel, 4α-acetoxy-2α-benzoyloxy-5β,20-epoxy-1β-hydroxy-7β,10β-dimethoxy-9-oxo-11-taxen-13α-yl (2R,3S)-3-tert-butoxycarbonyl-amino-2-hydroxy-3-phenylpropionate]
Average body weight change in % per mouse at nadir [1]: −10.1%
Drug death (Day of death) [1]: 0/6
Regressions Complete [1]: 0/6
Regressions Partial [1]: 0/6
Tumor free survivors at day 120 [1]: 0/6
day of nadir [1]: (24) day
ΔT/ΔC in % (day 27) [1]: 24%
Biological interpretation (3.5 mg/kg per injection (total 7.0) IV days 14, listed as CABAZITAXEL): Active
Biological interpretation (3.5 mg/kg per injection (total 7.0) IV days 14, listed as cabazitaxel): active
Tumor volume changes from baseline: Median (nMad) (3.5 mg/kg, day 18): 307 (35.6)
Tumor volume changes from baseline: Median (nMad) (3.5 mg/kg, day 22): 418 (258)
Tumor volume changes from baseline: Median (nMad) (3.5 mg/kg, day 29): 356.5
Average body weight change in % per mouse at nadir [2]: −15.3%
Drug death (Day of death) [2]: 0/6
Regressions Complete [2]: 2/6
Regressions Partial [2]: 5/6
Tumor free survivors at day 120 [2]: 0/6
day of nadir [2]: (28) day
Biological interpretation [3]: Highly
ΔT/ΔC in % (day 27) [3]: 0%
Biological interpretation (5.6 mg/kg per injection (total 11.2) IV days 14, listed as cabazitaxel): highly active
Tumor volume changes from baseline: Median (nMad) (5.6 mg/kg, day 18): 164 (30.4)
Tumor volume changes from baseline: Median (nMad) (5.6 mg/kg, day 19): 203 (80.1)
Tumor volume changes from baseline: Median (nMad) (5.6 mg/kg, day 20): 302.5
Tumor volume changes from baseline: Median (nMad) (5.6 mg/kg, day 22): 192.5
Tumor volume changes from baseline: Median (nMad) (5.6 mg/kg, day 27): 0 (130.5)
Tumor volume changes from baseline: Median (nMad) (5.6 mg/kg, day 29): 106 (147.5)
Tumor volume changes from baseline: Median (nMad) (5.6 mg/kg, day 33): −85 (117.1)
Tumor volume changes from baseline: Median (nMad) (5.6 mg/kg, day 39): −139 (113.4)
Tumor volume changes from baseline: Median (nMad) (5.6 mg/kg, day 41): −157 (113.4)
Tumor volume changes from baseline: Median (nMad) (5.6 mg/kg, day 43): −104.5
Tumor volume changes from baseline: Median (nMad) (5.6 mg/kg, day 35): −120 (98.6)
Average body weight change in % per mouse at nadir [4]: −8.0%
Biological interpretation [4]: very active
Drug death (Day of death) [4]: 0/6
Regressions Complete [4]: 6/6
Regressions Partial [4]: 6/6
Tumor free survivors at day 120 [4]: 5/6
day of nadir [4]: (25) day
ΔT/ΔC in % (day 27) [4]: 7%
Biological interpretation (9.0 mg/kg per injection (total 18) IV days 14, listed as CABAZITAXEL): Very
Tumor volume changes from baseline: Median (nMad) (9 mg/kg, day 18): 138.5
Tumor volume changes from baseline: Median (nMad) (9 mg/kg, day 29): 62.5 (91.9)
Tumor volume changes from baseline: Median (nMad) (9 mg/kg, day 33): −129 (142.3)
Tumor volume changes from baseline: Median (nMad) (9 mg/kg, day 39): −189.5
Tumor volume changes from baseline: Median (nMad) (9 mg/kg, day 41): −189.5
Tumor volume changes from baseline: Median (nMad) (9 mg/kg, day 43): −189.5
Tumor volume changes from baseline: Median (nMad) (9 mg/kg, day 35): −180 (94.9)
Average body weight change in % per mouse at nadir [5]: −15.0%
Drug death (Day of death) [5]: 0/6
Regressions Complete [5]: 6/6
Regressions Partial [5]: 6/6
Tumor free survivors at day 120 [5]: 6/6
day of nadir [5]: (24) day
Biological interpretation [6]: Highly
ΔT/ΔC in % (day 27) [6]: <0%
Biological interpretation (14.5 mg/kg per injection (total 29) IV days 14, listed as cabazitaxel): highly active
Tumor volume changes from baseline: Median (nMad) (14.5 mg/kg, day 29): −107 (150.5)
Tumor volume changes from baseline: Median (nMad) (14.5 mg/kg, day 33): −180 (66)
Tumor volume changes from baseline: Median (nMad) (14.5 mg/kg, day 46): −194 (74.1)
Tumor volume changes from baseline: Median (nMad) (14.5 mg/kg, day 50): −194 (74.1)
Tumor volume changes from baseline: Median (nMad) (14.5 mg/kg, day 35): −194 (74.1)
Tumor volume changes from baseline: Median (nMad) (14.5 mg/kg, day 39): −194 (74.1)
Tumor volume changes from baseline: Median (nMad) (14.5 mg/kg, day 41): −194 (74.1)
Tumor volume changes from baseline: Median (nMad) (14.5 mg/kg, day 43): −194 (74.1)
antitumor activity compared with docetaxel (conclusion of example 1): more active than docetaxel
